Reference: publication PMC6544242, “Development and validation of a multiplex UHPLC-MS/MS method for the determination of the investigational antibiotic against multi-resistant tuberculosis macozinone (PBTZ169) and five active metabolites in human plasma” (PLoS ONE, 2019)
Where two headings read alike, the source gives them in different places.

What was measured:
[1] = system: Mycobacterium tuberculosis; details: in vitro, Mycobacterium tuberculosis; cited from earlier work
[2] = system: Mycobacterium tuberculosis; design: method as in PMID 20086151, PMID 22926573, PMID 25987624, PMID 30126954; details: preclinical models; cited from earlier work
[3] = human
[4] = system: bacteria (general anti-bacterial activity); design: method as in PMID 24500695; details: cited from earlier work
[5] = human, 6 h
[6] = 24 h
[7] = for % from t0: processed extract sample, 24h

## O=c1nc(N2CCN(CC3CCCCC3)CC2)sc2c([N+](=O)[O-])cc(C(F)(F)F)cc12 [PBTZ169, macozinone]
[1]
  minimum inhibitory concentration (MIC): below 0.0005 μg/mL
[2]
  effect in combination with clofazimine or bedaquiline: synergistic effect
  effect in combination with isoniazide, moxifloxacin, rifampicin: additive effect
[3]; 1 h, 10 ng/mL
  % from t0: 1%
[3]; 1 h, 20 ng/mL
  % from t0: 2%
[3]; 1 h, 50 ng/mL
  % from t0: -1%
[3]; 1 h, 100 ng/mL
  % from t0: 3%
[3]; 1 h, 200 ng/mL
  % from t0: 1%
[3]; 1 h, 500 ng/mL
  % from t0: 0%
[3]; 2 h, 10 ng/mL
  % from t0: 0%
[3]; 2 h, 20 ng/mL
  % from t0: 2%
[3]; 2 h, 50 ng/mL
  % from t0: -3%
[3]; 2 h, 100 ng/mL
  % from t0: -1%
[3]; 2 h, 200 ng/mL
  % from t0: -3%
[3]; 2 h, 500 ng/mL
  % from t0: -4%
[3]; 4 h, 10 ng/mL
  % from t0: -1%
[3]; 4 h, 20 ng/mL
  % from t0: -1%
[3]; 4 h, 50 ng/mL
  % from t0: -7%
[3]; 4 h, 100 ng/mL
  % from t0: 0%
[3]; 4 h, 200 ng/mL
  % from t0: -2%
[3]; 4 h, 500 ng/mL
  % from t0: -3%
[4]
  general anti-bacterial activity: no general anti-bacterial activity
[5]; 0.1 ng/mL
  % from freshly processed samples (n=2): 19%
[5]; 0.2 ng/mL
  % from freshly processed samples (n=2): 11%
[5]; 0.5 ng/mL
  % from freshly processed samples (n=2): -12%
[5]; 1 ng/mL
  % from freshly processed samples (n=2): -4%
[5]; 2 ng/mL
  % from freshly prepared samples: 5%
  % from freshly processed samples (n=2): -3%
[5]; 50 ng/mL
  % from freshly processed samples (n=2): 7%
[5]; 150 ng/mL
  % from freshly prepared samples: -3%
[5]; 500 ng/mL
  % from freshly processed samples (n=2): -4%
[5]; 1000 ng/mL
  % from freshly processed samples (n=2): -10%
[5]; 1500 ng/mL
  % from freshly prepared samples: -7%
[5]; 2000 ng/mL
  % from freshly processed samples (n=2): -1%
[6]
  time stable in citrated human plasma: at least 24 h
[7]; after 24h at RT, medium level
  change in processed samples: -30%
[7]; 4°C, level H (QC 1500 ng/mL)
  % from t0: -15%
[7]; 4°C, level L (QC 2 ng/mL)
  % from t0: 5%
[7]; 4°C, level M (QC 150 ng/mL)
  % from t0: -7%
[7]; RT, level H (QC 1500 ng/mL)
  % from t0: -8%
[7]; RT, level L (QC 2 ng/mL)
  % from t0: -3%
[7]; RT, level M (QC 150 ng/mL)
  % from t0: 2%
